Experimental findings from ChEMBL document CHEMBL1201862, “PubChem BioAssay data set” (2004) are described below.

Among the test systems are ACHN; CAKI-1; EKVX; HCC 2998; HCT-116; HCT-15; HL-60; HOP-92; HT-29; K562; NCI-H226; NCI-H522; OVCAR-4; OVCAR-5; RXF 393; SF-268; SK-MEL-2; SN12C; SNB-19; UACC-62.
Common to all, as to assay: DTP human tumour cell line panel, 48 h

Molecules are shown by their SMILES.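 48-hour exposure; five concentrations; linearly interpolated endpoints. GI50 = concentration required for 50% inhibition of growth.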 Activity calls are given as the source filed them. Cut-off read from the data, not from the text of the source: active = GI50 up to about 1.1 µM and inactive = higher.

The GI50 is the concentration at which growth is held to half of that of the control. As to `CN(C)C/C=C(/c1ccc(Br)cc1)c1cccnc1`, the GI50 is > 100 µM (inactive) in the test with ACHN; 92.9 µM (inactive) with CAKI-1; > 100 µM (inactive) in the test on EKVX; 15.7 µM (inactive) with HCC 2998; 71 µM (inactive) in the test on HCT-116; greater than 100 µM in the test with HCT-15. Also, the GI50 in the test with HL-60 is 0.0165 µM (active); in the test on HOP-92, 64.6 µM (inactive); with HT-29, 78.5 µM (inactive); in the test with K562, 32.2 µM (inactive); in the test with NCI-H226, > 100 µM (inactive); in the test with NCI-H522, 56.4 µM (inactive). Moreover, the GI50 with OVCAR-4 was > 100 µM (inactive); with OVCAR-5, > 100 µM (inactive); in the test with RXF 393 it was 30.6 µM (inactive); with SF-268, 65.8 µM (inactive); in the test on SK-MEL-2, 19.8 µM (inactive); with SN12C, > 100 µM (inactive). Besides, the GI50 in the test with SNB-19 is > 100 µM (inactive); with UACC-62, 19.6 µM (inactive).
Consider `Fc1c(F)c(F)c(CSc2nc3ccccc3[nH]2)c(F)c1F`, for which the GI50 with ACHN was > 100 µM (inactive); with CAKI-1, > 100 µM (inactive); with EKVX, > 100 µM (inactive); in the test on HCC 2998, > 100 µM (inactive); in the test with HCT-116 it was > 100 µM (inactive); in the test on HCT-15 it was greater than 100 µM. Besides, the GI50 in the test on HL-60 was > 100 µM (inactive); in the test with HOP-92, 47 µM (inactive); in the test on HT-29, > 100 µM (inactive); with K562, > 100 µM (inactive); in the test with NCI-H226 it was > 100 µM (inactive); in the test with NCI-H522, > 100 µM (inactive). The GI50 in the test with OVCAR-4, with OVCAR-5, in the test with RXF 393, in the test with SF-268, in the test on SK-MEL-2 and in the test on SN12C was > 100 µM (inactive) each time. Moreover, the GI50 in the test on SNB-19 and with UACC-62 was > 100 µM (inactive) in each case.
Regarding `CCOC(=O)CNC(=O)C(CCC(=O)N(C)O)NC(=O)CCC(N)C(=O)O` (centres undefined), the GI50 is > 100 µM (inactive) in the test on ACHN; > 100 µM (inactive) with CAKI-1; > 100 µM (inactive) in the test on EKVX; > 100 µM (inactive) in the test with HCC 2998; > 100 µM (inactive) with HCT-116; greater than 100 µM in the test with HCT-15. Further, the GI50 in the test on HL-60, with HOP-92, in the test with HT-29, in the test with K562, in the test on NCI-H226 and with NCI-H522 was > 100 µM (inactive) in each case. Besides, the GI50 in the test with OVCAR-4, in the test with OVCAR-5, in the test on RXF 393, with SF-268, with SK-MEL-2 and with SN12C was > 100 µM (inactive) throughout. Further, the GI50 in the test with SNB-19 and with UACC-62 was > 100 µM (inactive) in each case.
For the molecule `Cc1cc2c(C(C)C)c(O)c(O)c(/C=N/c3ccccc3)c2c(O)c1-c1c(C)cc2c(C(C)C)c(O)c(O)c(/C=N/c3ccccc3)c2c1O`, the GI50 with ACHN was > 100 µM (inactive); with CAKI-1, > 100 µM (inactive); in the test with EKVX, > 100 µM (inactive); in the test with HCC 2998, > 100 µM (inactive); in the test on HCT-116 it was > 100 µM (inactive); with HCT-15, greater than 100 µM. Further, the GI50 in the test with HL-60, in the test on HOP-92, with HT-29, in the test on K562, in the test on NCI-H226 and in the test with NCI-H522 was > 100 µM (inactive) throughout. Besides, the GI50 in the test on OVCAR-4, in the test with OVCAR-5, in the test with RXF 393, in the test on SF-268, with SK-MEL-2 and in the test on SN12C was > 100 µM (inactive) each time. The GI50 with SNB-19 and with UACC-62 was > 100 µM (inactive) in each case.
For `CCOC(=O)c1nc2cc(C(F)(F)F)ccc2nc1Oc1ccc(F)cc1`, the GI50 with ACHN is > 100 µM (inactive); with CAKI-1 it was > 100 µM (inactive); with EKVX, > 100 µM (inactive); in the test with HCC 2998, > 100 µM (inactive); in the test on HCT-116, 4.49 µM (inactive); in the test on HCT-15, greater than 100 µM. Moreover, the GI50 in the test on HL-60 was 63.4 µM (inactive); in the test with HOP-92 it was 87.3 µM (inactive); in the test on K562, > 100 µM (inactive); with NCI-H226, > 100 µM (inactive); in the test with NCI-H522, > 100 µM (inactive); in the test with OVCAR-4, 69.5 µM (inactive). Besides, the GI50 with OVCAR-5 is > 100 µM (inactive); in the test with RXF 393 it was 54 µM (inactive); in the test on SF-268, > 100 µM (inactive); with SK-MEL-2 it was > 100 µM (inactive); in the test on SN12C, > 100 µM (inactive); in the test with SNB-19, > 100 µM (inactive). For the same molecule, in the test on UACC-62, the GI50 is > 100 µM (inactive).
`COc1nc(N)nc2nc[nH]c12`: the GI50 in the test on ACHN was 328 µM (inactive); in the test on CAKI-1 it was 162 µM (inactive); with EKVX, > 387 µM (inactive); in the test on HCC 2998, > 500 µM (inactive); with HCT-116, 463 µM (inactive); with HCT-15 it was 445 µM. In addition, the GI50 in the test with HL-60 is 383 µM (inactive); in the test with HOP-92, 235 µM (inactive); in the test with HT-29, 495 µM (inactive); in the test with K562, > 500 µM (inactive); in the test with NCI-H226 it was 318 µM (inactive); in the test on NCI-H522, 440 µM (inactive). Besides, the GI50 with OVCAR-4 was 479 µM (inactive); with OVCAR-5, 345 µM (inactive); with RXF 393, 313 µM (inactive); in the test with SF-268, 435 µM (inactive); in the test on SK-MEL-2, 460 µM (inactive); in the test on SN12C it was 441 µM (inactive). Further, the GI50 in the test with SNB-19 is > 500 µM (inactive); in the test on UACC-62 it was 160 µM (inactive).
Take `C=CCNC1=C2C[C@@H](C)C[C@H](OC)[C@H](O)[C@@H](C)/C=C(\C)[C@H](OC(N)=O)[C@@H](OC)/C=C\C=C(/C)C(=O)NC(=CC1=O)C2=O` [TANESPIMYCIN]: the GI50 in the test on ACHN is 0.127 µM (active); in the test on CAKI-1 it was 1.29 µM (inactive); in the test with EKVX it was 4.01 µM (inactive); in the test on HCC 2998 it was 0.0664 µM (active); in the test on HCT-116, 0.0311 µM (active); with HCT-15, 0.204 µM. The GI50 with HL-60 is 0.0489 µM (active); with HOP-92, 3.69 µM (inactive); with HT-29 it was 0.0113 µM (active); with K562, 0.0405 µM (active); in the test with NCI-H226, 4.49 µM (inactive); in the test with NCI-H522, 0.0431 µM (active). Moreover, the GI50 in the test with OVCAR-4 was 4.39 µM (inactive); in the test on OVCAR-5, 0.177 µM (active); in the test on RXF 393, 0.0813 µM (active); in the test on SF-268, 0.593 µM (active); in the test on SK-MEL-2 it was 0.292 µM (active); in the test on SN12C it was 0.0308 µM (active). In addition, the values for the GI50 in the test on SNB-19 and with UACC-62 were 0.525 µM (active) and 0.0326 µM (active), respectively.
